Assay results taken from patent publication US4148996A, “3,7-Disubstituted cephalosporins” (Societa Farmaceutici Italia S.p.A., priority 1976, dated 1979).
≈ marks a conversion by molar mass, not a printed value. Where two headings read alike, the source gives them in different places.

Legend:
S.flexneri = assay: in vitro MIC by serial dilution, S.flexneri; assay type: cell-based; settings: Shigella flexneri, read-out: MIC (minimal inhibitory concentration)
Description: (§1) A series of comparative tests was carried out in vitro with the method of serial dilutions in Penassay Seed Broth Difco inoculated with 10^4 bacteria/ml (overnight cultures).
(§2) Table 1 below reports the results of the above assays as MIC (minimal inhibitory concentration, mcg/ml).

E.coli B = assay: in vitro MIC by serial dilution, E.coli B; assay type: cell-based; settings: Escherichia coli, read-out: MIC (minimal inhibitory concentration)
Description: as §1, §2

K.pneumoniae = assay: in vitro MIC by serial dilution, K.pneumoniae; assay type: cell-based; settings: Klebsiella pneumoniae, read-out: MIC (minimal inhibitory concentration)
Description: as §1, §2

S.pyogenes = assay: in vitro MIC by serial dilution, S.pyogenes; assay type: cell-based; settings: Streptococcus pyogenes, read-out: MIC (minimal inhibitory concentration)
Description: as §1, §2

S.abortivoequina = assay: in vitro MIC by serial dilution, S.abortivoequina; assay type: cell-based; settings: Salmonella, read-out: MIC (minimal inhibitory concentration)
Description: as §1, §2

S.aureus = assay: in vitro MIC by serial dilution, S.aureus; assay type: cell-based, Staphylococcus aureus; settings: for MIC: Staphylococcus aureus, read-out: MIC (minimal inhibitory concentration); for antistaphylococcal activity: in words, compared with cephazolin and cephalothin
Description: as §1, §2

Staphylococcus aureus = assay: in vivo therapeutic activity on mice experimentally infected with Staphylococcus aureus; set-up: species or system male Swiss Cobs albino mice; settings: for ED50: Staphylococcus aureus, sc, 168 h, Table 2, 2 LD50/mouse i.p., subcutaneous treatment 4 h after infection, 7 days, read-out: ED50 (dose effective in curing 50% of the infected mice); for effectiveness on experimental staphylococcal infections: in words, compared with cephazolin and cephalothin
Description: (§3) In vivo tests for therapeutic activity were carried out on mice experimentally infected with Staphylococcus aureus and Salmonella abortivoequina (Infective dose: 2 LD50 /mouse i.p.); groups of 6 male Swiss Cobs albino mice were used. The infected animals were treated by the subcutaneous route 4 h after infection. The mortality rate was recorded every day for 7 days. The activity was assessed as ED50 (Dose effective in curing 50% of the infected mice as mg/Kg--see Reed and Muench, Am. J. Hyg. 27, 493, 1938.)

S.typhimurium = assay: in vitro MIC by serial dilution, S.typhimurium; assay type: cell-based; settings: Salmonella enterica, read-out: MIC (minimal inhibitory concentration)
Description: as §1, §2

[1] = tested on: Salmonella abortivoequina; assay: in vivo therapeutic activity on mice experimentally infected with Salmonella abortivoequina; set-up: species or system male Swiss Cobs albino mice; settings: sc, 168 h
Description: as §3

P.mirabilis = assay: in vitro MIC by serial dilution, P.mirabilis; assay type: cell-based; settings: Proteus mirabilis, read-out: MIC (minimal inhibitory concentration)
Description: as §1, §2

[2] = S.flexneri, serial dilutions in Penassay Seed Broth Difco, 10^4 bacteria/ml
[3] = E.coli B, serial dilutions in Penassay Seed Broth Difco, 10^4 bacteria/ml
[4] = K.pneumoniae, serial dilutions in Penassay Seed Broth Difco, 10^4 bacteria/ml
[5] = S.pyogenes, serial dilutions in Penassay Seed Broth Difco, 10^4 bacteria/ml
[6] = S.abortivoequina, serial dilutions in Penassay Seed Broth Difco, 10^4 bacteria/ml
[7] = S.aureus, serial dilutions in Penassay Seed Broth Difco, 10^4 bacteria/ml
[8] = P.mirabilis, serial dilutions in Penassay Seed Broth Difco, 10^4 bacteria/ml
[9] = S.typhimurium, serial dilutions in Penassay Seed Broth Difco, 10^4 bacteria/ml
[10] = mice infected with Salmonella abortivo equina, subcutaneous 4 h after infection, read-out: ED50

SMILES	MIC (S.flexneri; [2]) [µg/mL]	MIC (E.coli B; [3]) [µg/mL]	MIC (K.pneumoniae; [4]) [µg/mL]	MIC (S.pyogenes; [5]) [µg/mL]	MIC (S.abortivoequina; [6]) [µg/mL]	MIC (S.aureus; [7]) [µg/mL]	antistaphylococcal activity (S.aureus)	ED50 (Staphylococcus aureus) [mg/kg]	MIC (P.mirabilis; [8]) [µg/mL]	MIC (S.typhimurium; [9]) [µg/mL]	further results
O=C(Cc1ccccc1)NC1C(=O)N2C(C(=O)O)=C(CSc3cncc(Cl)n3)CSC12 (centres unmarked) [Compound 310, 7-phenylacetamido-3-(6-chlorpyrazin-2-ylthiomethyl)-3-cephem-4-carboxylic acid]	> 50	0.6 (≈ 1.26 µM)	0.1 (≈ 0.21 µM)	6.2 (≈ 13 µM)	50 (≈ 105 µM)	0.06 (≈ 0.126 µM)	excellent antistaphylococcal activity, clearly superior to that of known cephalosporins	35	–	–	–
O=C(Cc1ccccc1)NC1C(=O)N2C(C(=O)O)=C(CSc3c[n+]([O-])ccn3)CSC12 (centres unmarked) [356/307, 7-phenylacetamido-3-(pyrazin-2-ylthiomethyl-4-oxide)-3-cephem-4-carboxylicacid]	12.5 (≈ 27.3 µM)	6 (≈ 13.1 µM)	1.5 (≈ 3.27 µM)	1.5 (≈ 3.27 µM)	25 (≈ 54.5 µM)	0.012 (≈ 0.0262 µM)	excellent antistaphylococcal activity, clearly superior to that of known cephalosporins	–	–	–	–
CC(=O)OCC1=C(C(=O)O)N2C(=O)[C@@H](NC(=O)Cc3cccs3)[C@H]2SC1 [cephalothin, reference compound]	1.5 (≈ 3.78 µM)	1.25 (≈ 3.15 µM)	–	–	–	0.1 (≈ 0.252 µM)	–	30	–	–	MIC (K.pneumoniae): 0.3 µg/mL (≈ 0.757 µM); MIC (S.pyogenes): 1.25 µg/mL (≈ 3.15 µM); MIC (S.typhimurium; TYPHIMURIUM): 3 µg/mL (≈ 7.57 µM); MIC (S.abortivoequina): 1.5 µg/mL (≈ 3.78 µM); ED50 ([1]; Salmonella): 50 mg/kg; MIC (P.mirabilis): 6.2 µg/mL (≈ 15.6 µM)
O=C(Cc1ccccc1)NC1C(=O)N2C(C(=O)O)=C(CSc3cnccn3)CS[C@H]12 (some centres unmarked) [Compound 308, 7-phenylacetamido-3-pyrazinylthiomethyl-3-cephem-4-carboxylic acid]	50 (≈ 113 µM)	1 to 2 (≈ 2.26 to 4.52 µM)	0.75 (≈ 1.69 µM)	1.5 (≈ 3.39 µM)	100 (≈ 226 µM)	0.012 (≈ 0.0271 µM)	excellent antistaphylococcal activity, clearly superior to that of known cephalosporins	17.5	50 (≈ 113 µM)	–	effectiveness on experimental staphylococcal infections (Staphylococcus aureus): more effective than cephazolin and cephalothin
O=C(Cn1cnnn1)NC1C(=O)N2C(C(=O)O)=C(CSc3cnccn3)CSC12 (centres unmarked) [Compound 318, 7-[1-(1H)-tetrazolylacetamido]-3-pyrazinylthiomethyl-3-cephem-4-carboxylic acid]	3.1 (≈ 7.14 µM)	6.25 (≈ 14.4 µM)	3.1 (≈ 7.14 µM)	–	3.1 (≈ 7.14 µM)	0.097 (≈ 0.223 µM)	–	–	12.5 (≈ 28.8 µM)	12.5 (≈ 28.8 µM)	–
NC(=O)c1cncc(SCC2=C(C(=O)O)N3C(=O)C(NC(=O)Cc4cccs4)C3SC2)n1 (centres unmarked) [Compound 313, 7-(2-thienyl)-acetamido-3-(6-carboxamidopyrazin-2-ylthiomethyl)-3-cephem-4-carboxylic acid]	6.25 (≈ 12.7 µM)	2.5 (≈ 5.09 µM)	1.25 (≈ 2.54 µM)	1.25 (≈ 2.54 µM)	–	0.012 (≈ 0.0244 µM)	excellent antistaphylococcal activity, clearly superior to that of known cephalosporins	20	50 (≈ 102 µM)	12.5 (≈ 25.4 µM)	MIC (S.abortivoequina): 6.25 µg/mL (≈ 12.7 µM); effectiveness on experimental staphylococcal infections (Staphylococcus aureus): more effective than cephazolin and cephalothin
NC(=O)c1cncc(SCC2=C(C(=O)O)N3C(=O)C(NC(=O)Cc4ccccc4)C3SC2)n1 (centres unmarked) [Compound 311, 7-phenylacetamido-3-(6-carboxamidopyrazin-2-ylthiomethyl)-3-cephem-4-carboxylic acid]	12.5 (≈ 25.7 µM)	5 (≈ 10.3 µM)	1.5 to 2.5 (≈ 3.09 to 5.15 µM)	1.5 (≈ 3.09 µM)	> 50	0.06 (≈ 0.124 µM)	–	17.5	> 50	–	effectiveness on experimental staphylococcal infections (Staphylococcus aureus): more effective than cephazolin and cephalothin
COc1nccnc1SCC1=C(C(=O)O)N2C(=O)C(NC(=O)Cc3cccs3)C2SC1 (centres unmarked) [Compound 317, 7-(2-thienyl)-acetamido-3-(3-methoxy-pyrazin-2-ylthiomethyl)-3-cephem-4-carboxylic acid]	50 (≈ 104 µM)	1.5 (≈ 3.13 µM)	1.5 (≈ 3.13 µM)	–	> 50	0.005 (≈ 0.0104 µM)	–	–	50 (≈ 104 µM)	> 50	–
Cc1nnc(SCC2=C(C(=O)O)N3C(=O)[C@@H](NC(=O)Cn4cnnn4)[C@H]3SC2)s1 [cephazolin, reference compound]	1.5 (≈ 3.3 µM)	1.25 (≈ 2.75 µM)	0.6 (≈ 1.32 µM)	1.25 (≈ 2.75 µM)	1.25 (≈ 2.75 µM)	0.1 (≈ 0.22 µM)	–	30	3.1 (≈ 6.82 µM)	1.5 (≈ 3.3 µM)	ED50 [1, 10]: 25 mg/kg
CC(=O)OCC1=C(C(=O)O)N2C(=O)C(NC(=O)CSc3cnccn3)C2SC1 (centres unmarked) [Compound 312, 7-pyrazinylthioacetamidocephalosporanic acid]	–	–	1.5 (≈ 3.53 µM)	3.1 (≈ 7.3 µM)	25 (≈ 58.9 µM)	–	–	40	–	–	MIC (S.flexneri): 12.5 µg/mL (≈ 29.4 µM); MIC (E.coli B): 5 µg/mL (≈ 11.8 µM); MIC (S.aureus): 0.12 µg/mL (≈ 0.283 µM)
O=C(CSc1cnccn1)NC1C(=O)N2C(C(=O)O)=C(CSc3c[n+]([O-])ccn3)CSC12 (centres unmarked) [Compound 316, 7-pyrazinylthioacetamido-3-(pyrazin-2-ylthiomethyl-4-oxide)-3-cephem-4-carboxylic acid]	12.5 (≈ 25.4 µM)	5 (≈ 10.2 µM)	2.5 (≈ 5.08 µM)	2.5 (≈ 5.08 µM)	–	0.025 (≈ 0.0508 µM)	excellent antistaphylococcal activity, clearly superior to that of known cephalosporins	40	> 50	50 (≈ 102 µM)	MIC (S.abortivoequina): 12.5 µg/mL (≈ 25.4 µM)
O=C(CSc1cnccn1)NC1C(=O)N2C(C(=O)O)=C(CSc3cncc(Cl)n3)CSC12 (centres unmarked) [Compound 315, 7-pyrazinylthioacetamido-3-(6-chloropyrazin-2-ylthiomethyl)-3-cephem-4-carboxylic acid]	50 (≈ 97.8 µM)	2.5 (≈ 4.89 µM)	1.25 (≈ 2.45 µM)	1.25 (≈ 2.45 µM)	> 50	0.006 (≈ 0.0117 µM)	excellent antistaphylococcal activity, clearly superior to that of known cephalosporins	40	> 50	> 50	–
COc1cncc(SCC2=C(C(=O)O)N3C(=O)C(NC(=O)Cc4cccs4)C3SC2)n1 (centres unmarked) [Compound 321, 7-(2-Thienyl)-acetamido-3-(6-methoxypyrazin-2-ylthiomethyl)-3-cephem-4-carboxylic acid]	10 (≈ 20.9 µM)	1.25 (≈ 2.61 µM)	0.25 (≈ 0.522 µM)	0.12 (≈ 0.251 µM)	20 (≈ 41.8 µM)	0.037 (≈ 0.0773 µM)	–	15	10 (≈ 20.9 µM)	20 (≈ 41.8 µM)	ED50 [1, 10]: 50 mg/kg
O=C(Cc1cccs1)NC1C(=O)N2C(C(=O)O)=C(CSc3cnccn3)CSC12 (centres unmarked) [Compound 314, 7-(2-thienyl)-acetamido-3-pyrazinylthiomethyl-3-cephem-4-carboxylic acid]	6.25 (≈ 13.9 µM)	0.6 (≈ 1.34 µM)	0.6 (≈ 1.34 µM)	1.25 (≈ 2.79 µM)	–	0.003 (≈ 0.00669 µM)	–	20	25 (≈ 55.7 µM)	–	MIC (S.typhimurium; TYPHIMURIUM): 6.25 µg/mL (≈ 13.9 µM); MIC (S.abortivoequina): 6.25 µg/mL (≈ 13.9 µM)
